From US20190185518A9, “WARHEAD-CONTAINING PEPTIDOMIMETIC MACROCYCLES AS MODULATORS OF BFL-1” (AILERON Therapeutics, Inc., priority 2017, published 2019)
Like-named read-outs stand apart in the source and are kept apart here. Positions of bridges follow the written chain, without caps; N, C: chain ends. Non-standard residues stand in square brackets, D forms with d. Residues, ends and D or L forms follow the SMILES beside them. R8 = C=CCCCCCC[C@@](C)(N)C(=O)O; S5 = C=CCCC[C@](C)(N)C(=O)O

Key:
Bcl-xL = Bcl-xL (Homo sapiens, UniProt Q07817); test: Ki determination for Bcl-xL (BCL-2 family binding spectrum); conditions: read-out: Ki BCL-XL
Bcl-xL, sequence (Q07817 whole entry, species assumed): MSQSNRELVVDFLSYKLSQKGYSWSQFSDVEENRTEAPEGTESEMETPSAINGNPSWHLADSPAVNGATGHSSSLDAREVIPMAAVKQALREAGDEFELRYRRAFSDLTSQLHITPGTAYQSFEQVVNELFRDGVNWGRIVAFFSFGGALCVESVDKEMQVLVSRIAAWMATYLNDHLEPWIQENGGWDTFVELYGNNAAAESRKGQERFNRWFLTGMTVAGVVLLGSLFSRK
Summary of the method: (§1)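 Competitive fluorescence polarization: compounds (1 nM–1 mM) with 25 nM fluoresceinated peptidomimetic macrocycle and 50 nM protein in 140 mM NaCl, 50 mM Tris-HCl pH 7.4, 30 min at room temperature. Constants from nonlinear regression.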

Mcl-1 [1] = biological target: T1, Mcl-1 (Homo sapiens, UniProt Q07820); test: Ki determination for Mcl-1 (BCL-2 family binding spectrum); conditions: read-out: Ki MCL-1
T1 sequence (Q07820 whole entry, species assumed): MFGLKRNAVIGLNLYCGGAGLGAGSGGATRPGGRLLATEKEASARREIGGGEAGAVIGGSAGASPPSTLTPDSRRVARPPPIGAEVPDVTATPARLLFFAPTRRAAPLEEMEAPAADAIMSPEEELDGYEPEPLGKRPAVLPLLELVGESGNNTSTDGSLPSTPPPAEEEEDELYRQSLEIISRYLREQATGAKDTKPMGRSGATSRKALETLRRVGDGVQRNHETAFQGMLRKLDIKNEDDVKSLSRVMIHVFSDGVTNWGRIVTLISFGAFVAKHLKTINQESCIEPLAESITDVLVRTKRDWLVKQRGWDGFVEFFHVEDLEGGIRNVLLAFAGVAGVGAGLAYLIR
Summary of the method: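 Binding to Mcl-1 was measured as displacement of a fluorescein-labelled macrocyclic peptidomimetic, read by fluorescence polarization. Constants were fitted by nonlinear regression.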

Human Raji cells = format: cell-based; conditions: Raji Cell Viability, 48 h, 5% serum
Method: BIM peptidomimetic macrocycles were tested for cell killing at various concentrations. Human Raji cells were treated with increasing doses of peptidomimetic macrocycles corresponding to Aileron peptide A (FIGS. 1 and 2), Aileron peptide B (FIGS. 1-3), and Aileron peptide C (FIGS. 3 and 4). An […] was calculated for each dose of the peptidomimetic macrocycle from a non-linear fit of response vs dose (GraphPad Prism).

Bcl-2 = Bcl-2 (Homo sapiens, UniProt P10415); test: Ki determination for Bcl-2 (BCL-2 family binding spectrum); conditions: read-out: Ki BCL-2
Bcl-2, sequence (P10415 whole entry, species assumed): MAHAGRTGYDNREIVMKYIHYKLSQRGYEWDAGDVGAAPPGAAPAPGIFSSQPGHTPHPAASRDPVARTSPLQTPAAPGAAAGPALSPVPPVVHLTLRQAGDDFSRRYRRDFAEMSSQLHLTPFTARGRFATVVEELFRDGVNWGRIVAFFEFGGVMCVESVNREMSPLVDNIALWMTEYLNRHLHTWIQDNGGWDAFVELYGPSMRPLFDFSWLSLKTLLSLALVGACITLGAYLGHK
Summary of the method: as §1

Mcl-1 [2] = biological target: T1, Mcl-1; conditions: cited from earlier work
MCL-1 driven Raji cells = test: cells; conditions: Homo sapiens, read-out: EC50 (anti-proliferative effects)
[3] = system: ABT-199 resistant Burkitt lymphoma Raji cells; test: WST-1 anti-proliferative activity in Raji cells; format: cell-based, Human; conditions: Homo sapiens; TABLE 9; Raji cell proliferation
Source text: WST-1 is a cell proliferation reagent that is used in colorimetric assays designed to measure the relative proliferation rates of cells in culture. The assay is based on the conversion of the tetrazolium salt WST-1 into a colored dye by mitochondrial dehydrogenase enzymes. The soluble salt is released into the media. Within a given time period, the reaction produces a color change that is directly proportional to the amount of mitochondrial dehydrogenase in a culture. The WST-1 assay measures the net metabolic activity of cells.

[4] = biological target: T2, MCL-1/BAK protein-protein interaction (Homo sapiens, UniProt Q07820); test: MCL-1 displacement study (BAK FRET signal); format: cell-based; conditions: 5 μM or 10 μM
T2 construct: host or cells: Raji
T2 sequence (Q07820 whole entry): as the sequence (Q07820 whole entry, species assumed) above
Method: BIM peptidomimetic macrocycles were tested for displacement of MCL-1 from a BAK fluorescence resonance energy transfer (FRET) peptide.
FIG. 19 compares normalized FRET signals of samples to determine the samples' effects in disrupting MCL-1/BAK protein-protein interactions.

Mcl-1, Bcl-xL, Bcl-2 [5] = test: BCL-2 family selectivity profile; format: binding; conditions: TABLE 8
Source text: The binding spectrum of stapled BIM BH3 peptides were tuned for BCL-2 family selectivity. […] ABT-199 is venetoclax, and † represents values reported in the literature.

Mcl-1, Bcl-xL, Bcl-2 [6] = conditions: TABLE 8; † reported in the literature; cited from earlier work

For CC[C@H](C)[C@H](NC(C)=O)C(=O)N[C@@H](Cc1c[nH]c2ccccc12)C(=O)N[C@H](C(=O)N[C@@H](C)C(=O)N[C@@H](CCC(N)=O)C(=O)N[C@@H](C)C(=O)N[C@@H](CC(C)C)C(=O)N[C@@H](CCCNC(=N)N)C(=O)N[C@]1(C)CCCCCCC=CCCC[C@@](C)(C(=O)N[C@@H](Cc2ccc(O)cc2)C(=O)N[C@@H](Cc2ccc(O)cc2)C(=O)N[C@@H](C)C(N)=O)NC(=O)[C@H](CC(N)=O)NC(=O)[C@H](Cc2ccccc2)NC(=O)[C@H](CCC(=O)O)NC(=O)[C@H](CC(=O)O)NC(=O)CNC(=O)[C@H]([C@@H](C)CC)NC1=O)[C@@H](C)CC [compound 1649] (Ac-IWIAQALR[R8]IGDEFN[S5]YYA-NH2; staple 9-16), the Ki (Bcl-xL) was 1.4 nM, the Ki (Mcl-1 [1]) was 1.8 nM and the EC50 (Human Raji cells) was > 40 µM. The Ki (Bcl-2) was 3.2 nM.
For CC1(C)CCC(CN2CCN(c3ccc(C(=O)NS(=O)(=O)c4ccc(NCC5CCOCC5)c([N+](=O)[O-])c4)c(Oc4cnc5[nH]ccc5c4)c3)CC2)=C(c2ccc(Cl)cc2)C1 [ABT-199, venetoclax], the Ki (Mcl-1 [2]; TABLE 6, † values reported in the literature) is listed as > 444 nM, the Ki (Mcl-1 [2]; TABLE 8, † reported in the literature) is listed as > 444 nM and the EC50 (MCL-1 driven Raji cells) is listed as 3700 to 4900 nM. The IC50 [3] was 3100 nM.
For CC1(C)CCC(c2ccc(Cl)cc2)=C(CN2CCN(c3ccc(C(=O)NS(=O)(=O)c4ccc(N[C@H](CCN5CCOCC5)CSc5ccccc5)c(S(=O)(=O)C(F)(F)F)c4)cc3)CC2)C1 [ABT-263, navitoclax, reference compound], the “disrupting the MCL-1/BAK protein-protein interaction (normalized FRET signal)” value [4] is given as “did not disrupt”, the Profile (Mcl-1, Bcl-xL, Bcl-2 [5]) is given as “Bcl-xL/Bcl-2 selective” and the Profile (Mcl-1, Bcl-xL, Bcl-2 [6]) is given as “Bcl-xL/Bcl-2 selective”.
